# Laboratory results reported in the supplement of paper PMC11061612.
# Key:
# Assay in all cases: Bliss excess, mean over the matrix (fraction); higher = more synergy
# [1] = test system: NCI-H1435 (Non-Small Cell Lung Carcinoma)
# Method in brief: (§1)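 Cell lines grown in DMEM/F12 or RPMI with 10% FBS were plated in 1536-well plates and held 24 hours at 37°C, 5% CO2 before 72 hours of exposure to two-drug dose matrices, with DMSO typically at 0.2%. CellTiter-Glo 2.0 luminescence gave viability, which was converted to inhibition. Vehicle wells were set to 0 and blank wells to 1. Combination Emax is the second-highest inhibition in the matrix, and Bliss excess is the observed combination effect minus the expected EA + EB − EA·EB, where EA and EB are the single-agent effects.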
# [2] = test system: CAL-85-1 (Breast Carcinoma)
# Method in brief: as §1
# [3] = test system: NCI-H2452 (Mesothelioma)
# Method in brief: as §1
# [4] = test system: KNS-62 (Squamous Cell Lung Carcinoma)
# Method in brief: as §1
# [5] = test system: MG-63 (Osteosarcoma)
# Method in brief: as §1
# [6] = test system: DK-MG (Glioblastoma)
# Method in brief: as §1
# [7] = test system: SBC-3 (Small Cell Lung Carcinoma)
# Method in brief: as §1
# [8] = test system: NCI-H2023 (Non-Small Cell Lung Carcinoma)
# Method in brief: as §1
# [9] = test system: ATN-1 (T-Lymphoblastic Leukemia)
# Method in brief: as §1
# [10] = test system: GCIY (Gastric Carcinoma)
# Method in brief: as §1
# [11] = test system: JJN-3 (Plasma Cell Myeloma)
# Method in brief: as §1
# [12] = test system: SUP-HD1 (Hodgkin's Lymphoma)
# Method in brief: as §1
# [13] = test system: BT-474 (Breast Carcinoma)
# Method in brief: as §1
# [14] = test system: HT-144 (Melanoma)
# Method in brief: as §1
# [15] = test system: BC-1 (B-Cell Non-Hodgkin's Lymphoma)
# Method in brief: as §1
# [16] = test system: TOV-21G (Ovarian Carcinoma)
# Method in brief: as §1
# [17] = test system: SCC90 (Head and Neck Carcinoma)
# Method in brief: as §1
# [18] = test system: HT-3 (Cervical Carcinoma)
# Method in brief: as §1
# [19] = test system: NTERA-2-cl-D1 (Other Solid Carcinomas)
# Method in brief: as §1
# [20] = test system: RS4-11 (B-Lymphoblastic Leukemia)
# Method in brief: as §1
SMILES,Bliss excess [1],Bliss excess [2],Bliss excess [3],Bliss excess [4],Bliss excess [5],Bliss excess [6],Bliss excess [7],Bliss excess [8],Bliss excess [9],Bliss excess [10],Bliss excess [11],Bliss excess [12],Bliss excess [13],Bliss excess [14],Bliss excess [15],Bliss excess [16],Bliss excess [17],Bliss excess [18],Bliss excess [19],Bliss excess [20]
"CN(CCO)CC[C@H](CSc1ccccc1)Nc1ccc(S(=O)(=O)NC(=O)c2ccc(N3CCC([C@@H](O)c4ccccc4-c4ccc(Cl)cc4)CC3)cc2)cc1S(=O)(=O)C(F)(F)F [AZD4320] + CN(C)CCCOc1ccc(-c2ccc3ncc4c(c3c2)n(C2CCOCC2)c(=O)n4C)cn1 [AZD0156] (first compound max 1 µM, 7x7, partner max 1 µM)",-0.0269,-0.0472,-0.0287,-0.0566,-0.0816,-0.0539,-0.0809,-0.0922,-0.0231,0.0237,0.0142,-0.0754,-0.057,-0.0032,-0.0228,-0.0262,0.0037,-0.0251,-0.0692,-0.0209
"CN(CCO)CC[C@H](CSc1ccccc1)Nc1ccc(S(=O)(=O)NC(=O)c2ccc(N3CCC([C@@H](O)c4ccccc4-c4ccc(Cl)cc4)CC3)cc2)cc1S(=O)(=O)C(F)(F)F [AZD4320] + C[C@@H]1COCCN1C2=NC(=NC(=C2)C3(CC3)[S@](=N)(=O)C)C4=C5C=CNC5=NC=C4 [AZD6738] (first compound max 1 µM, 7x7, partner max 10 µM)",0.0366,-0.0048,-0.0246,-0.0338,-0.0762,-0.0439,-0.0184,-0.0255,0.0273,0.0264,0.0041,-0.0207,-0.0901,-0.0385,-0.0014,-0.0224,0.019,-0.0285,-0.0301,0.026
"CN(CCO)CC[C@H](CSc1ccccc1)Nc1ccc(S(=O)(=O)NC(=O)c2ccc(N3CCC([C@@H](O)c4ccccc4-c4ccc(Cl)cc4)CC3)cc2)cc1S(=O)(=O)C(F)(F)F [AZD4320] + C[C@@H](Nc1cc(F)cc(F)c1)c1cc(C(=O)N(C)C)cc2c(=O)cc(N3CCOCC3)oc12 [AZD8186] (first compound max 1 µM, 7x7, partner max 3 µM)",0.131,0.0145,-0.0369,0.0068,-0.0149,-0.0164,-0.0093,-0.034,-0.0214,0.0022,0.0409,0.0322,0.0516,0.0944,0.0677,-0.0083,0.0276,0.0383,0.0543,0.0239
"COc1nnc2ccc(N3CCC(c4ccc(OCCN5CCN(C)C(=O)[C@H]5C)cc4)CC3)nn12 [AZD5153] + C=CCn1c(=O)c2cnc(Nc3ccc(N4CCN(C)CC4)cc3)nc2n1-c1cccc(C(C)(C)O)n1 [AZD1775] (first compound max 1 µM, partner max 1 µM)",0.0179,-0.0551,-0.0525,-0.0371,-0.0419,-0.0209,-0.0111,0.0244,-0.0494,-0.0136,-0.0673,-0.114,-0.0279,0.0394,-0.048,-0.0246,-0.0282,-0.0104,0.0115,0.0184
"COc1nnc2ccc(N3CCC(c4ccc(OCCN5CCN(C)C(=O)[C@H]5C)cc4)CC3)nn12 [AZD5153] + CC1(C)CCC(CN2CCN(c3ccc(C(=O)NS(=O)(=O)c4ccc(NCC5CCOCC5)c([N+](=O)[O-])c4)c(Oc4cnc5[nH]ccc5c4)c3)CC2)=C(c2ccc(Cl)cc2)C1 [Venetoclax] (first compound max 1 µM, 7x7, partner max 1 µM)",-0.0143,-0.0582,0.0059,-0.0381,-0.0509,-0.0766,-0.0545,-0.0832,-0.0279,-0.0592,0.0278,-0.0316,-0.078,-0.0488,-0.0604,-0.0264,0.0009,-0.0644,-0.0251,-0.0179
"COc1nnc2ccc(N3CCC(c4ccc(OCCN5CCN(C)C(=O)[C@H]5C)cc4)CC3)nn12 [AZD5153] + CCN(CCO)CCCOc1ccc2c(Nc3cc(CC(=O)Nc4cccc(F)c4)[nH]n3)ncnc2c1 [AZD2811] (first compound max 1 µM, 7x7, partner max 1 µM)",0.0052,-0.0411,-0.0574,-0.0382,-0.037,-0.13,-0.0225,-0.0248,-0.127,-0.0388,0.0098,-0.0586,-0.0197,0.0216,-0.0313,-0.0249,-0.0547,-0.0644,-0.0385,-0.0195
"COc1nnc2ccc(N3CCC(c4ccc(OCCN5CCN(C)C(=O)[C@H]5C)cc4)CC3)nn12 [AZD5153] + C[C@@H]1COCCN1C2=NC(=NC(=C2)C3(CC3)[S@](=N)(=O)C)C4=C5C=CNC5=NC=C4 [AZD6738] (first compound max 1 µM, 7x7, partner max 10 µM)",0.0222,-0.006,0.0045,-0.018,0.0223,-0.0073,-0.032,0.0692,0.0411,0.0327,-0.0394,-0.0281,0.0788,0.0637,-0.0709,-0.0018,0.0164,0.0769,0.0005,0.0145
"COc1nnc2ccc(N3CCC(c4ccc(OCCN5CCN(C)C(=O)[C@H]5C)cc4)CC3)nn12 [AZD5153] + Cc1c2c(nn1C)CSCc1cc(n(C)n1)CSc1cc(c3ccccc3c1)OCCCc1c(C(=O)O)n(C)c3c-2c(Cl)ccc13 [AZD5991] (first compound max 1 µM, 7x7, partner max 1 µM)",-0.0108,-0.0157,-0.0265,-0.0459,-0.0302,-0.0037,-0.0503,-0.0217,-0.0304,-0.0727,-0.0268,-0.0414,-0.0012,-0.0094,-0.0202,-0.0337,0.0814,0.0362,0.0698,0.0102
"COc1nnc2ccc(N3CCC(c4ccc(OCCN5CCN(C)C(=O)[C@H]5C)cc4)CC3)nn12 [AZD5153] + Cn1cnc2c(F)c(Nc3ccc(Br)cc3Cl)c(C(=O)NOCCO)cc21 [Selumetinib] (first compound max 1 µM, 7x7, partner max 10 µM)",0.0113,-0.0298,-0.029,-0.0169,-0.0246,-0.032,-0.0811,-0.0158,0.0098,0.0023,-0.0076,-0.0019,-0.0245,0.0212,-0.036,-0.02,0.098,0.0276,0.0236,-0.0454
"Cc1c2c(nn1C)CSCc1cc(n(C)n1)CSc1cc(c3ccccc3c1)OCCCc1c(C(=O)O)n(C)c3c-2c(Cl)ccc13 [AZD5991] + C=CCn1c(=O)c2cnc(Nc3ccc(N4CCN(C)CC4)cc3)nc2n1-c1cccc(C(C)(C)O)n1 [AZD1775] (first compound max 1 µM, partner max 1 µM)",0.0568,-0.0194,0.0015,0.0251,-0.0317,0.0168,-0.0043,0.0092,-0.0027,0.0035,-0.0331,-0.106,-0.0298,0.0284,-0.0314,-0.0865,-0.0001,-0.0335,0.0383,0.0066
"Cc1c2c(nn1C)CSCc1cc(n(C)n1)CSc1cc(c3ccccc3c1)OCCCc1c(C(=O)O)n(C)c3c-2c(Cl)ccc13 [AZD5991] + CC1(C)CCC(CN2CCN(c3ccc(C(=O)NS(=O)(=O)c4ccc(NCC5CCOCC5)c([N+](=O)[O-])c4)c(Oc4cnc5[nH]ccc5c4)c3)CC2)=C(c2ccc(Cl)cc2)C1 [Venetoclax] (first compound max 1 µM, 7x7, partner max 1 µM)",0.0174,-0.0296,-0.0471,-0.0426,0.0034,-0.0696,0.0727,-0.0387,0.0429,0.0076,0.0514,0.0788,-0.0279,0.005,0.0493,-0.0115,0.0246,0.0195,0.0217,0.0963
"Cc1c2c(nn1C)CSCc1cc(n(C)n1)CSc1cc(c3ccccc3c1)OCCCc1c(C(=O)O)n(C)c3c-2c(Cl)ccc13 [AZD5991] + CCN(CCO)CCCOc1ccc2c(Nc3cc(CC(=O)Nc4cccc(F)c4)[nH]n3)ncnc2c1 [AZD2811] (first compound max 1 µM, 7x7, partner max 1 µM)",0.0411,-0.0011,-0.0486,0.0156,0.0186,-0.0543,0.0082,0.0307,-0.0413,-0.0183,0.0225,0.0311,0.0314,0.0561,0.0403,0.0576,0.081,0.162,0.0704,-0.0061
"Cc1c2c(nn1C)CSCc1cc(n(C)n1)CSc1cc(c3ccccc3c1)OCCCc1c(C(=O)O)n(C)c3c-2c(Cl)ccc13 [AZD5991] + C[C@@H]1COCCN1C2=NC(=NC(=C2)C3(CC3)[S@](=N)(=O)C)C4=C5C=CNC5=NC=C4 [AZD6738] (first compound max 1 µM, 7x7, partner max 10 µM)",0.0488,-0.0233,0.0425,0.0235,0.0127,0.046,0.0405,-0.0078,0.0085,-0.0184,-0.0071,-0.0279,0.0367,0.0039,-0.0396,0.0322,0.0141,0.08,0.0936,-0.0197
"Cc1c2c(nn1C)CSCc1cc(n(C)n1)CSc1cc(c3ccccc3c1)OCCCc1c(C(=O)O)n(C)c3c-2c(Cl)ccc13 [AZD5991] + C[C@@H](Nc1cc(F)cc(F)c1)c1cc(C(=O)N(C)C)cc2c(=O)cc(N3CCOCC3)oc12 [AZD8186] (first compound max 1 µM, 7x7, partner max 3 µM)",0.0131,-0.0067,0.0441,-0.0449,-0.0213,0.0095,-0.0341,-0.0253,-0.0131,-0.0611,-0.0448,-0.0414,-0.0099,0.0622,-0.0042,-0.0139,0.0186,0.0217,0.0081,-0.0092
